How the values were obtained:
ICR mice = assay: Intraperitoneal administration of partial peptides of nesfatin-1 / nesfatin-1M30 / NUCB1-M30 to ICR mice, food intake; assay type: in vivo, mouse; details: 0-3 hours, vs Vehicle
Procedure: Each peptide of nesfatin-1N23, nesfatin-1M30 and nesfatin-1C29 used was a synthetic peptide of which production was referred to Biologica Co., Ltd. and was purified by HPLC to a purity of 95% or higher. Each peptide was prepared in physiological saline so as to contain 50 nmol per 200 μl, which was used as the sample, and as the control sample physiological saline (Vehicle) alone was used. Using a tuberculin syringe equipped with a 25G needle, 200 μl each of the samples was administered once into the abdominal cavity of each mouse (5 animals per group), and the time of administration was immediately before the start (6 p.m.) of the dark period. Mice used were male ICR mice (Nippon SLC) and the housing condition was similar to those in Working Example 18.
Each mouse that received administration was placed in an individual cage, and during 0-3 hours after the administration the weight decreased of the pellet food was measured to determine the amount of food intake. For testing of significant difference, analysis of variance was used.
Each peptide was prepared in physiological saline so as to contain 10 pmol per 100 μl, which was used as the sample for administration, and as the control sample physiological saline (Vehicle) alone was used. The physiological saline as the control and the peptide samples prepared were intraperitoneally administered at 100 μl per mouse (6 animals per group). Mice used were male ICR mice (Nippon SLC) and the housing condition and the experimental condition were similar to those in Working Example 18.
Each of the prepared human nesfatin-1M30 and mouse NUCB1-M30 was prepared in physiological saline so as to contain 10 pmol per 100 μl, which was used as the sample for administration.
The physiological saline as the control and the peptide sample prepared were intraperitoneally administered at 100 μl per mouse (n=6 per group). Mice used were male ICR mice (Nippon SLC) and the housing condition and the experimental condition were similar to those in Working Example 18.

Wistar rats = assay: Administration of recombinant nesfatin into the third ventricle, amount of food intake; assay type: in vivo, rat; details: 5 pmol intraventricular; 0-1 hour, 1-3 hour and 3-6 hours
Procedure: Rats used were Wistar rats (purchased from Nippon SLC), and the animals were housed under a cycle of 12 hours of the light period from 6 a.m. to 6 p.m. and 12 hours of the dark period from 6 p.m. to 6 a.m. the next morning and fed a powder chew (Nippon Clea, CE-2), and kept at 22° C., and housing was continued under a similar condition during the experiment. For the experiment, among 8-9 week-old male Wistar rats, those individuals weighing 200-250 g were used. For administration, 5 μl of saline (control) or recombinant nesfatin prepared in Working Example 5 dissolved to 0.2 pmol, 0.6 pmol and 3.0 pmol in 5 μl of PBS was administered per individual (N=5 for each group). The rats received intraperitoneal administration of 40 mg/kg body weight of pentobarbital sodium for anesthesia. After the hair was removed from the head, they were fixed in a brain stereotaxic apparatus (David Kopf Instruments, Model 962) and the scalp was incised and a 23G needle (guide cannula) was implanted so as to reach the third ventricle (2.5 mm behind the bregma, 9.5 mm from the surface). One week after implanting the guide cannula, the animals were subjected to the experiment. After recovering from the surgery, a 29G cannula for injection was inserted into the guide cannula under no anesthesia, and 5 μl of PBS or the matured mouse nesfatin solution in PBS was administered at a rate of 1 μl/second. After fixing the cannula as it was for 2-3 minutes after the administration, the cannula was extracted, and the animals were returned to the individual cages. One, three, and six hours thereafter, the weight of the food was determined to record the amount of food intake, which was used as an index of feeding behavior. For the test of significant difference, analysis of variance was used.
The PCR product obtained was subjected to 1% agarose gel electrophoresis to excise an amplified band, which was purified with QIAEX-II kit (QIAGEN). The amplified DNA excised was cleaved with restriction enzymes SpeI and NotI, and ligated to pET41a(+) plasmid vector (Novagen) cleaved with restriction enzymes SpeI and NotI, using the Quick DNA ligase kit (New England Biolabs). From the cloned DNA, a clone, which has no errors in mutant portions introduced after analyzing DNA sequences in a similar manner to Working Example 5 and other nucleotide sequences, can be selected to obtain a vector for expressing the KR-AA mutant. The expression and purification were carried out in a similar manner to Working Example 5. The amino acid sequence of the KR-AA mutant obtained is set forth in SEQ ID NO: 61. Wt (normal nesfatin), which was prepared in Working Example 5, was used. 5 pmol each of the KR-AA mutant (Mut) peptide and the normal nesfatin (Wt) peptide were administered to the third ventricle of rats in a similar manner to Working Example 6. One, three, six and 12 hours thereafter, the weight of the food was determined to record the amount of food intake, which was used as an index of feeding behavior.
Also, in the same manner as in Working Example 6, after 5 pmol of nesfatin was administered into the rat ventricle, the amount of food intake was determined during 0-1 hour/1-3 hours/3-6 hours after the administration. The control group used was the one that only received physiological saline (0 pmol). For testing of significant difference, analysis of variance was used.

Molecule | amount of food intake (ICR mice; 10 pmol per 100 μl ip, Working Example 23) | amount of food intake (ICR mice; 50 nmol per 200 μl ip) | control activity of food intake (Wistar rats)
nesfatin-1M30: 30-amino acid partial peptide of mouse nesfatin-1 (SEQ ID NO: 41) (PDTGLYYDEYLKQVIEVLETDPHFREKLQK; listed as Mus musculus) | significant effect of suppressing food intake | significant decrease | 
nesfatin-1N23: amino acid numbers 1 to 23 of mouse nesfatin-1 (SEQ ID NO: 42) (VPIDVDKTKVHNTEPVENARIEP; listed as Mus musculus) |  | no significant decrease or enhancement in the amount of food intake | 
Mut: nesfatin mutant in which Lys-Arg at amino acid numbers 84 and 85 is replaced with Ala-Ala (SEQ ID NO: 61) (protein, Chemically-synthesized KR-AA mutant polypeptide) GSPIDVDKTKVHNTEPVENARIEPPDTGLYYDEYLKQVIEVLETDPHFREKLQKADIEEIRSGRLSQELDLVSHKVRTRLDELAAQEVGRLRMLIKAKLDALQDTGMNHHLLLKQFEHLNHQNPNTFESRDLDMLIKAATADLEQYDRTRHEEFKKYEMMKEHERREYLKTLSEEKRKEEESKFEEMKRKHEDHPKVNHPGSKDQLKEVWEETDGLDPNDFDPKTFFKLHDVNNDGFLDEQELEALFTRELEKVYNPQNAEDDMIEMEEERLRMREHVMSEIDNNKDRLVTLEEFLRATEKKEFLEPDSWETLDQQQLFTEDELKEYESIIAIQENELKKRAEELQKQKEDLQRQHDHLEAQKQEYHQAVQHLEQKKLQQGIAPSGPAGELKFEPHT |  |  | no control activity of food intake was observed

— patent US7795390B2, “Biological substance nesfatin and its related substances and uses thereof” (Teijin Pharma Limited, priority 2005, dated 2010)
